Consider one compound from patent US7608564B2, “3-heterocyclyl-substituted benzoyl derivatives” (BASF Aktiengesellschaft, priority 1997, dated 2009).

For orientation: melting point means the temperature, or range, at which the solid turns liquid. With `Cn1ncc(C(=O)c2ccc(S(C)(=O)=O)c(C3=NOCC3)c2Cl)c1O` [3.35, 4-[2-Chloro-3-(4,5-dihydroisoxazol-3-yl)-4-methylsulfonyl-benzoyl]-5-hydroxy-1-methyl-1H-pyrazole], the melting point is over 250 °C.
